Assay results reported in patent US9845420B2, “Latent heat cold storage material” (Panasonic Intellectual Property Management Co., Ltd., priority 2015, dated 2017).

Assay: Saturated concentration (solubility) of crystalline powder compound in inorganic salt aqueous solution
Type: physicochemical
Conditions: for Saturating concentration: 25 degrees Celsius; for Saturated concentration: 25° C., aqueous solution containing only 15 wt % of sodium chloride and 10 wt % of ammonium chloride
Method: The latent heat cold storage material of the present disclosure contains a crystalline powder as a supercooling inhibitor. The crystalline powder is formed of a compound having low solubility in an aqueous solution of an inorganic salt (hereinafter, also referred to as a low-solubility compound).
In the present disclosure, the “solubility” refers to a limit of an amount at which a solute is dissolved in a certain amount of a solvent. The solubility is represented by a mass (g) of the solute which is dissolved in 100 g of the solvent at a certain temperature. […] In the present disclosure, the “saturated concentration” refers to a concentration of an aqueous solution in which a solute is dissolved up to the solubility. When the limit of an amount at which a solute is dissolved in 100 g of a solvent is 20 g, the solubility is 20 g, and the saturated concentration of the solute is 16.7 wt %.

Saturating concentration (aqueous solution containing 10 wt % of potassium chloride and 10 wt % of ammonium chloride) [wt %] | Saturating concentration (aqueous solution containing 12.5 wt % of potassium chloride and 12.5 wt % of ammonium chloride) | Saturated concentration | Solubility in the inorganic salt aqueous solution (normal temperature, inorganic salt concentration 10 to 30 wt %) [wt %] | Compound
7.0 | less than 7.0 wt % | 3.0 wt % | ≤ 10 | CCNC(=O)NCC [1,3-diethylurea]
– | – | less than 0.08 wt % | – | CCCCNC(=O)NCCCC [1,3-dibutylurea]
– | – | less than 7.0 wt % | – | O=C(NC1CCCCC1)NC1CCCCC1 [1,3-dicyclohexylurea]
